“And” between values parts separate entries of the source, which are not always exact repeats. Identical values can stand only once.
Columns and labels:
Assay in all cases: normalised viability (% of control), CellTiter-Blue; higher = more viable cells (about 100 = DMSO control)
Details in all cases: incubation time: 72 h
[1] = test system: HDQ-P1
Description: (§1)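 DSRT, CellTiter-Blue viability, 72 h incubation. Signal is normalised to DMSO and benzethonium chloride controls. Value is the normalised response at dose 7.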

[2] = test system: DU-4475
Description: as §1

[3] = test system: CAL-51
Description: as §1

[4] = test system: CAL-85-1
Description: as §1

[5] = test system: MDA-MB-453
Description: as §1

[6] = test system: CAL-148
Description: as §1

[7] = test system: DU-4475; remark: listed apart in the source
Description: (§2)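 DSRT, CellTiter-Blue viability, 72 h incubation. Signal is normalised to DMSO and benzethonium chloride controls. Value is the normalised response at dose 8.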

[8] = test system: CAL-85-1; remark: listed apart in the source
Description: as §2

[9] = test system: CAL-148; remark: listed apart in the source
Description: as §2

[10] = test system: MDA-MB-231
Procedure, shortened: (§3)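 Vehicle (100) and a positive kill control (0) anchored the normalisation of each plate, and Z'-factor was used for quality control. Breast cancer cell lines in 20 µl suspension were incubated 72 h over compound in 5 µl medium in 384-well plates, followed by CellTiter-Blue at 560/590 nm. The value is normalised viability at a single listed concentration of the series.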

[11] = test system: HDQ-P1; remark: listed apart in the source
Procedure, shortened: as §3

[12] = test system: DU-4475; remark: listed apart in the source
Procedure, shortened: as §3

[13] = test system: CAL-51; remark: listed apart in the source
Procedure, shortened: as §3

[14] = test system: MDA-MB-468
Procedure, shortened: as §3

[15] = test system: Hs578T
Procedure, shortened: as §3

[16] = test system: SK-BR-3
Procedure, shortened: as §3

[17] = test system: BT-549
Procedure, shortened: as §3

[18] = test system: CAL-120
Procedure, shortened: as §3

[19] = test system: CAL-85-1; remark: listed apart in the source
Procedure, shortened: as §3

[20] = test system: HCC1599
Procedure, shortened: as §3

[21] = test system: HCC1937
Procedure, shortened: as §3

[22] = test system: BT-474
Procedure, shortened: as §3

[23] = test system: MDA-MB-453; remark: listed apart in the source
Procedure, shortened: as §3

[24] = test system: MFM-223
Procedure, shortened: as §3

[25] = test system: HCC1143
Procedure, shortened: as §3

[26] = test system: CAL-148; remark: listed apart in the source
Procedure, shortened: as §3

[27] = test system: HDQ-P1; remark: listed apart in the source
Description: (§4)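 DSRT, CellTiter-Blue viability, 72 h incubation. Signal is normalised to DMSO and benzethonium chloride controls. Value is the normalised response at dose 9.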

[28] = test system: DU-4475; remark: listed apart in the source
Description: as §4

[29] = test system: CAL-51; remark: listed apart in the source
Description: as §4

[30] = test system: CAL-85-1; remark: listed apart in the source
Description: as §4

[31] = test system: MDA-MB-453; remark: listed apart in the source
Description: as §4

[32] = test system: CAL-148; remark: listed apart in the source
Description: as §4

`CC[C@]1(O)C[C@H]2CN(CCc3c([nH]c4ccccc34)[C@@](C(=O)OC)(c3cc4c(cc3OC)N(C=O)[C@H]3[C@@](O)(C(=O)OC)[C@H](OC(C)=O)[C@]5(CC)C=CCN6CC[C@]43[C@@H]65)C2)C1` [Vincristine] was tested, and the normalised viability ([1]; 100 nM) was 36.1%, the normalised viability ([1]; 1000 nM) was 43.1% and the normalised viability ([2]; 100 nM) was 34.1%. It also gave a normalised viability ([2]; 1000 nM) of 8.18%, a normalised viability ([3]; 100 nM) of 27% and a normalised viability ([3]; 1000 nM) of 10.3%. The normalised viability ([4]; 100 nM) was 43.9%, the normalised viability ([4]; 1000 nM) was 34.7% and the normalised viability ([5]; 100 nM) was 34.3%. It also gave a normalised viability ([5]; 1000 nM) of 36.4%, a normalised viability ([6]; 100 nM) of 16% and a normalised viability ([6]; 1000 nM) of 26%. The normalised viability ([7]; 300 nM) was 14.8%, the normalised viability ([7]; 3000 nM) was 6.84% and the normalised viability ([8]; 300 nM) was 40.6%. For the same molecule, the normalised viability ([8]; 3000 nM) was 38.1%, the normalised viability ([9]; 300 nM) was 20.4% and the normalised viability ([9]; 3000 nM) was 26.8%. For the same molecule, the normalised viability ([10]; 100 nM) was 15.5%, the normalised viability ([10]; 1000 nM) was 14.3% and the normalised viability ([11]; 3 nM) was 91.3%. The normalised viability ([11]; 30 nM) was 58.7%, the normalised viability ([12]; 3 nM) was 94.7% and the normalised viability ([12]; 30 nM) was 48.9%. It also gave a normalised viability ([13]; 3 nM) of 99%, a normalised viability ([13]; 30 nM) of 72.1% and a normalised viability ([14]; 100 nM) of 33.4%. It also gave a normalised viability ([14]; 1000 nM) of 33.2%, a normalised viability ([15]; 100 nM) of 17.7% and a normalised viability ([15]; 1000 nM) of 16.8%. It also gave a normalised viability ([16]; 100 nM) of 17.1%, a normalised viability ([16]; 1000 nM) of 17.2% and a normalised viability ([17]; 100 nM) of 22.3%. It also gave a normalised viability ([17]; 1000 nM) of 16.2%, a normalised viability ([18]; 100 nM) of 19.3% and a normalised viability ([18]; 1000 nM) of 19.2%. For the same molecule, the normalised viability ([19]; 3 nM) was 89.9%, the normalised viability ([19]; 30 nM) was 33% and the normalised viability ([20]; 100 nM) was 59.3%. For the same molecule, the normalised viability ([20]; 1000 nM) was 48%, the normalised viability ([21]; 100 nM) was 13.8% and the normalised viability ([21]; 1000 nM) was 15.1%. For the same molecule, the normalised viability ([22]; 100 nM) was 52%, the normalised viability ([22]; 1000 nM) was 50.6% and the normalised viability ([23]; 3 nM) was 92.1%. It also gave a normalised viability ([23]; 30 nM) of 22.6%, a normalised viability ([24]; 100 nM) of 40.2% and a normalised viability ([24]; 1000 nM) of 28.1%. The normalised viability ([25]; 100 nM) was 38.8%, the normalised viability ([25]; 1000 nM) was 35.8% and the normalised viability ([26]; 3 nM) was 88.5%. It also gave a normalised viability ([26]; 30 nM) of 23.2%, a normalised viability ([27]; 1000 nM) of 41.5% and a normalised viability ([27]; 10000 nM) of 37.9%. It also gave a normalised viability ([28]; 1000 nM) of 7.67%, a normalised viability ([28]; 10000 nM) of 8.66% and a normalised viability ([29]; 1000 nM) of 11.7%. It also gave a normalised viability ([29]; 10000 nM) of 10.7%, a normalised viability ([30]; 1000 nM) of 47.4% and a normalised viability ([30]; 10000 nM) of 39.8%. The normalised viability ([31]; 1000 nM) was 38.5%, the normalised viability ([31]; 10000 nM) was 41.6% and the normalised viability ([32]; 1000 nM) was 21.8%. The normalised viability ([32]; 10000 nM) was 28.5%.

For `Cc1ccc(NC(=O)c2ccc(CN3CCN(C)CC3)cc2)cc1Nc1nccc(-c2cccnc2)n1` [Imatinib], the normalised viability ([1]; 1000 nM) was 106% and 122%, the normalised viability ([2]; 1000 nM) was 115% and 108% and the normalised viability ([3]; 1000 nM) was 106% and 102%. For the same molecule, the normalised viability ([4]; 1000 nM) was 92.6% and 82.5%, the normalised viability ([5]; 1000 nM) was 110% and 92.5% and the normalised viability ([6]; 1000 nM) was 82.7% and 100%. The normalised viability ([7]; 3000 nM) was 112% and 116%, the normalised viability ([8]; 3000 nM) was 96.1% and 95.3% and the normalised viability ([9]; 3000 nM) was 102% and 90.9%. For the same molecule, the normalised viability ([10]; 1000 nM) was 92.1% and 110%, the normalised viability ([11]; 30 nM) was 89.2% and 107% and the normalised viability ([12]; 30 nM) was 104% and 85.4%. The normalised viability ([13]; 30 nM) was 106% and 99.3%, the normalised viability ([14]; 1000 nM) was 106% and 109% and the normalised viability ([15]; 1000 nM) was 100% and 103%. For the same molecule, the normalised viability ([16]; 1000 nM) was 103% and 115%, the normalised viability ([17]; 1000 nM) was 95.8% and 88.7% and the normalised viability ([18]; 1000 nM) was 86.6% and 91.9%. For the same molecule, the normalised viability ([19]; 30 nM) was 91.2% and 88%, the normalised viability ([20]; 1000 nM) was 109% and 102% and the normalised viability ([21]; 1000 nM) was 80.5% and 85.3%. For the same molecule, the normalised viability ([22]; 1000 nM) was 111%, the normalised viability ([24]; 1000 nM) was 104% and 100% and the normalised viability ([25]; 1000 nM) was 85.9% and 97%. For the same molecule, the normalised viability ([26]; 30 nM) was 89.8% and 88.6%, the normalised viability ([28]; 10000 nM) was 121% and 110% and the normalised viability ([29]; 10000 nM) was 110% and 93.9%. The normalised viability ([30]; 10000 nM) was 87.7% and 85.9%, the normalised viability ([31]; 10000 nM) was 57.6% and 48.6% and the normalised viability ([32]; 10000 nM) was 80.5% and 92.7%.

For `CO[C@H]1C[C@@H]2CC[C@@H](C)[C@@](O)(O2)C(=O)C(=O)N2CCCC[C@H]2C(=O)O[C@H]([C@H](C)C[C@@H]2CC[C@@H](OCCO)[C@H](OC)C2)CC(=O)[C@H](C)/C=C(\C)[C@@H](O)[C@@H](OC)C(=O)[C@H](C)C[C@H](C)/C=C/C=C/C=C/1C` [Everolimus], the normalised viability ([1]; 100 nM) was 72.6% and 57.6%, the normalised viability ([2]; 100 nM) was 49.9% and 56% and the normalised viability ([3]; 100 nM) was 36.9% and 38%. The normalised viability ([4]; 100 nM) was 61.3% and 49.3%, the normalised viability ([5]; 100 nM) was 29.1% and 22.3% and the normalised viability ([6]; 100 nM) was 42% and 40.4%. The normalised viability ([7]; 300 nM) was 60.9% and 62.6%, the normalised viability ([8]; 300 nM) was 57% and 52.9% and the normalised viability ([9]; 300 nM) was 39% and 37.2%. The normalised viability ([10]; 100 nM) was 48.1% and 68.9%, the normalised viability ([11]; 3 nM) was 71.3% and 59.9% and the normalised viability ([13]; 3 nM) was 49.6% and 52.9%. The normalised viability ([14]; 100 nM) was 72.6% and 66.8%, the normalised viability ([15]; 100 nM) was 62.4% and 51% and the normalised viability ([16]; 100 nM) was 59.7% and 44.4%. The normalised viability ([17]; 100 nM) was 62.1% and 54.9%, the normalised viability ([18]; 100 nM) was 54.1% and 36.7% and the normalised viability ([19]; 3 nM) was 63.9% and 54%. The normalised viability ([20]; 100 nM) was 87% and 69.7%, the normalised viability ([21]; 100 nM) was 48.8% and 48.4% and the normalised viability ([22]; 100 nM) was 65.9% and 57.5%. The normalised viability ([23]; 3 nM) was 30.8% and 28.6%, the normalised viability ([24]; 100 nM) was 50% and 45.1% and the normalised viability ([26]; 3 nM) was 50.4% and 48.4%. The normalised viability ([27]; 1000 nM) was 76.8% and 59.4%, the normalised viability ([28]; 1000 nM) was 61.8% and 39.1% and the normalised viability ([29]; 1000 nM) was 37% and 28.9%. For the same molecule, the normalised viability ([30]; 1000 nM) was 62% and 43%, the normalised viability ([31]; 1000 nM) was 25.4% and 15.4% and the normalised viability ([32]; 1000 nM) was 38% and 16.3%.

From the supplement of paper PMC4862054
